Assay results: patent US11844802B2, “Compounds and compositions for ossification and methods related thereto” (Emory University, priority 2010, dated 2023)

Experiments:
[1] = system: alkaline phosphatase activity; assay: BMP-2 induced alkaline phosphatase (ALP) enzyme activity assay in C2C12 cells; type: cell-based, Mouse
Method: (§1) Mouse C2C12 cells and Dulbecco's modified Eagle's medium (DMEM) were purchased from ATCC (Manassas, VA). The non-heat inactivated fetal bovine serum (FBS) was purchased from HyClone Laboratories, Inc. (Logan, UT). The C2C12 cells at passages 5 to 10 were subcultured in T-75 cm^2 flasks in DMEM supplemented with 10% FBS at 37° C. in 5% CO2 with humidification. When the flasks reached 80% confluence, the cells were trypsinized and seeded in triplicate at 200,000 cells/well in a 6-well plate for quantitative real-time RT-PCR and alkaline phosphatase (ALP) assays or at 50,000 cells/well in a 12-well plate for the dual-luciferase reporter assay.
The C2C12 cells were plated at 200,000 cells/well in 6-well plates and grown overnight in DMEM containing 10% FBS. On day 2, the culture medium was replaced with DMEM containing 2% FBS and the cells were treated with various concentrations of the Smurf1-interacting compound for 24 hours. On day 3, the medium was replaced with fresh DMEM containing 2% FBS and the cells were treated with 50 ng/ml of BMP-2 with or without compound for 72 hours. The cells were washed with phosphate-buffered saline (PBS) and lysed by addition of lysis buffer (10 mM Tris-HCl pH 8.0, 1 mM MgCl2 and 0.5% Triton X-100). The cell lysates were centrifuged for 5 minutes at 13,000×g. The supernatant was removed and the aliquots were assayed for ALP activity and protein amount. The ALP activity was measured in triplicate using an ALP assay kit (Sigma-Aldrich, St. Louis, MO) in microtiter plates. The protein amount was determined with Bio-Rad™ protein assay reagent (Bio-Rad, Hercules, CA) using bovine serum albumin (BSA) as a standard. The ALP activity (nmoles of p-nitrophenol per ml) was normalized to the protein amount (nmoles of p-nitrophenol per μg).
(§2) The EC50 values were calculated by determining the concentration by which 50% of maximum activity was reached using the sigmoidal fit equation. The 50% effective concentrations were determined with the standard curve analysis of SigmaPlot™ 8.02. […]

C2C12 myoblasts = assay: BMP-2 responsiveness / osteoblastic transdifferentiation of C2C12 myoblasts, multiple assays; type: cell-based, Mouse
Description: Derivatives with desired attributes can be evaluated using the procedure described below.
Compounds were selected by virtual screening for development based on computational modeling, docking, and in silico screening. […] (See Sangadala et al. (2007) Proteins 68: 690-701 and FIG. 2). The BMP-potentiating activities of compounds may be evaluated by monitoring several markers of the osteoblastic phenotype corresponding to various time points during phenotype differentiation of C2C12 cells towards terminally differentiated osteoblasts.

[2] = system: BMP-specific Smad1-driven 9×GCCG reporter; assay: BMP-2 induced Smad1-driven dual-luciferase reporter assay in C2C12 cells; type: cell-based, Mouse; settings: BMP-2 1 ng/ml
Description: A cell-based method was optimized to monitor BMP-2 induced responses. […] One can monitor transcriptional activity driven by activated Smad1 in C2C12 cells in a cell-based assay utilizing a Smad1-specific luciferase reporter plasmid containing a multimerized -GCCG- motif (9 copies). […] A concentration range of BMP-2 required for activating the reporter assay was established.
A BMP-specific Smad1-driven 9×GCCG (a consensus binding sequence for Smad1) reporter plasmid was used. The C2C12 cells were trypsinized and seeded in triplicate wells at 50,000 cells/well in 12-well plates on day 1. On day 2, the cells were cotransfected with the 9×GCCG-reporter construct and the renilla-luciferase control vector using SuperFect (Qiagen, Valencia, CA) for 24 hrs. […] On day 5, the luciferase activities were measured in 20 μl of cell-lysate using the dual-luciferase assay system (Promega, Madison, WI) with a luminometer (LumiCount™; Packard Bioscience, Meriden, CT) following the manufacturer's instructions. The luciferase activity was expressed as relative units of luciferase (RUL; a ratio of firefly luciferase to renilla luciferase activity). […]

[3] = system: alkaline phosphatase mRNA; assay: BMP-2 induced alkaline phosphatase mRNA level, quantitative real-time RT-PCR in C2C12 cells; type: cell-based, Mouse; settings: for increase in alkaline phosphatase mRNA by BMP-2 alone: compared to no treatment control
Method: as §1
(§3) The C2C12 cells were plated at a density of 200,000 cells/well in 6-well plates and grown overnight in DMEM containing 10% FBS. On day 2, the culture medium was replaced with DMEM containing 2% FBS and the cells were treated with various concentrations of Smurf1-interacting compound (diluted from 10 mg/ml stock solutions prepared in DMSO) for 24 hours. In control cultures, a DMSO solvent concentration of 0.01% (v/v) was applied. On day 3, medium was replaced with fresh DMEM containing 2% FBS and the cells were treated with BMP-2 for 24 hours.
(§4) Total RNA was harvested using the RNeasy Mini Kit according to the manufacturer's instructions (Qiagen, Valencia, CA). The harvested RNA was digested with RNase-free DNase I (Qiagen, Valencia, CA) to remove DNA contamination. The concentration of the isolated RNA was determined by measuring the absorbance at 260 nm wave length with a spectrophotometer (Model DU 640, Beckman Coulter, Inc. Brea, CA). The ratio of A260/A280 was between 1.6 and 1.8. Reverse transcription was carried out to synthesize cDNA in a 100 μl volume with 2 μg of total RNA, 10×RT buffer, 5.5 mM MgCl2, 2 mM dNTP mixture, 0.125 μM oligo d(T), 0.125 μM random primer, 40 Units of RNase inhibitor, and 125 Units of MultiScribe™ (Applied Biosystems, Foster City, CA) for 10 minutes at 25° C., 30 minutes at 48° C., and 5 minutes at 95° C.
Quantitative real-time RT-PCR was performed to determine the mRNA expression level of ALP and osteocalcin. The sequences of the primers were as follows: ALP (forward, 5′-TCAGGGCAATGAGGTCACATC-3′; (SEQ ID NO: 6), reverse, 5′-CAC AAT GCC CAC GGA CTT C-3′) (SEQ ID NO: 7), osteocalcin (forward, 5′-CGGCCCTGAGTCTGACAAAG-3′; (SEQ ID NO: 8) reverse, 5′-CTCGTCACAAGCAGGGTCAA-3′ (SEQ ID NO: 9)). Twenty-five microliters of reaction volume included 5 μl of cDNA, 0.5 μl of 10 μM of each primer and 12.5 μl of 2×SYBR green master mix (Applied Biosystems). […]

osteocalcin mRNA = assay: BMP-2 induced osteocalcin mRNA level, quantitative real-time RT-PCR in C2C12 cells; type: cell-based, Mouse; settings: for increase in osteocalcin mRNA by BMP-2 alone: compared to no treatment control
Method: as §1, §3, §4
Quantitative real-time RT-PCR was performed to determine the mRNA expression level of ALP and osteocalcin. The sequences of the primers were as follows: ALP (forward, 5′-TCAGGGCAATGAGGTCACATC-3′; (SEQ ID NO: 6), reverse, 5′-CAC AAT GCC CAC GGA CTT C-3′) (SEQ ID NO: 7), osteocalcin (forward, 5′-CGGCCCTGAGTCTGACAAAG-3′; (SEQ ID NO: 8) reverse, 5′-CTCGTCACAAGCAGGGTCAA-3′ (SEQ ID NO: 9)). Twenty-five microliters of reaction volume included 5 μl of cDNA, 0.5 μl of 10 μM of each primer and 12.5 μl of 2×SYBR green master mix (Applied Biosystems). Real-time PCR was performed with the following three-step protocol: step 1, 50° C. for 2 minutes; step 2, 95° C. for 10 minutes; step 3, 40 cycles of 95° C. for 15 seconds and 62° C. for 1 minute using the 7500 real-time PCR System (Applied Biosystems, Foster City, CA). To confirm the amplification specificity, the PCR products were subjected to a dissociation curve analysis. The threshold cycles (Ct) of each reaction were normalized to those obtained for 18S mRNA using the −ΔΔCt method (Applied Biosystems). All PCR reactions were performed in triplicate.
as §2

rat model = assay: in vivo bone-formation in rat model (ectopic bone induction); settings: without any BMP-2
C2C12 cells = assay: cell lifting / cell number observation in C2C12 reporter assay; type: cell-based, Mouse; settings: reduced number of cells at end of experiment
Method: Compounds were tested experimentally for their ability to potentiate BMP-2 activity in our luciferase reporter assay using C2C12 cells (FIGS. 5A and 5B).

| Molecule | efficacy relative to other derivatives in cell-based alkaline phosphatase assay ([1]; screening, FIG. 9) | potentiation of BMP-2 induced transdifferentiation of C2C12 myoblasts into the osteoblastic phenotype (C2C12 myoblasts) | EC50 ([2]; Mus musculus, C2C12, calculated from the Hill plot, read-out: EC50, potentiation of BMP-2 luciferase reporter activity) | optimum enhancement of BMP-2 induced luciferase activity ([2]; compound 1.0 μg/ml, compared to BMP-2 alone, P<0.05) | maximal increase in BMP-induced alkaline phosphatase mRNA level ([3]; BMP-2 20 ng/ml, compared to BMP-2 alone, P<0.05) | EC50 ([3]; Mus musculus, C2C12, BMP-2 20 ng/ml, estimated, read-out: EC50, expression of alkaline phosphatase mRNA) | EC50 (osteocalcin mRNA; Mus musculus, C2C12, BMP-2 20 ng/ml, estimated, read-out: EC50, expression of osteocalcin mRNA) | effect of compound alone on osteocalcin mRNA (osteocalcin mRNA; absence of BMP-2) | maximal increase in BMP-induced osteocalcin mRNA level (osteocalcin mRNA; compound 1.0 μg/ml, BMP-2 20 ng/ml, compared to BMP-2 alone, P<0.05) | EC50 ([1]; Mus musculus, C2C12, BMP-2 50 ng/ml, estimated) | maximal increase in BMP-2 induced ALP activity ([1]; compound 1.0 μg/ml, BMP-2 50 ng/ml, compared to BMP-2 alone, P<0.001) | bone-formation in rat model (rat model) | concentration causing lifting of some cells from the plates (C2C12 cells) | effective dose of compound among multiple assays (C2C12 myoblasts; C2C12 cells, BMP-2 induced markers) | effect on BMP-2-induced response (C2C12 myoblasts; dose of 0.1 μg/ml) | increase in alkaline phosphatase mRNA by BMP-2 alone ([3]; absence of DMSO) | increase in alkaline phosphatase mRNA by BMP-2 alone ([3]; presence of DMSO (0.01%)) | increase in osteocalcin mRNA by BMP-2 alone (osteocalcin mRNA; absence of DMSO) | increase in osteocalcin mRNA by BMP-2 alone (osteocalcin mRNA; presence of DMSO (0.01%)) |
| --- | --- | --- | --- | --- | --- | --- | --- | --- | --- | --- | --- | --- | --- | --- | --- | --- | --- | --- | --- |
| CC1(C)N=C(N)N=C(N)N1c1ccc(Cl)cc1 [Compound 12X, 1-(4-chlorophenyl)-4,6-diamino-1,2-dihydro-2,2-dimethyl-1,3,5-triazine] | more efficacious | potentiate the effects of BMP-2 |  |  |  |  |  |  |  |  |  |  |  |  |  |  |  |  |  |
| C=Cc1nc(N)nc(N)n1 [Compound 12, 2,4-diamino-6-vinyl-1,3,5-triazine] |  | potentiate the effects of BMP-2 | 2.6 µM | 3.8 fold | 3.5 fold | 1.5 to 5.3 µM | 1.5 to 5.3 µM | no significant effect | 4.4 fold | 3.7 µM | 4.8 fold | capable of inducing bone-formation | higher than 1.5 ug/ml | 0.275 to 1.0 µg/mL | elevated the BMP-2-induced response significantly |  |  |  |  |
| BMP-2: bone morphogenetic protein, growth factor known to induce bone and cartilage formation and play a role in osteoblast differentiation (protein, listed as Homo sapiens) MVAGTRCLLALLLPQVLLGGAAGLVPELGRRKFAAASSGRPSSQPSDEVLSEFELRLLSMFGLKQRPTPSRDAVVPPYMLDLYRRHSGQPGSPAPDHRLERAASRANTVRSFHHEESLEELPETSGKTTRRFFFNLSSIPTEEFITSAELQVFREQMQDALGNNSSFHHRINIYEIIKPATANSKFPVTRLLDTRLVNQNASRWESFDVTPAVMRWTAQGHANHGFVVEVAHLEEKQGVSKRHVRISRSLHQDEHSWSQIRPLLVTFGHDGKGHPLHKREKRQAKHKQRKRLKSSCKRHPLYVDFSDVGWNDWIVAPPGYHAFYCHGECPFPLADHLNSTNHAIVQTLVNSVNSKIPKACCVPTELSAISMLYLDENEKVVLKNYQDMVVEGCGCR |  |  |  |  |  |  |  |  |  |  |  |  |  |  |  | 43 fold | 51 fold | 9 fold | 7 fold |
